Data taken from US5607937A, “Piperazides of substituted phenylalanine derivatives as thrombin inhibitors” (priority 1993, dated 1997).

Columns and labels:
[1] = plasma concentration in rats after rectal administration; format: in vivo; conditions: rat
[2] = in vivo; conditions: plasma, rat, intraduodenal 100 mg/kg
[3] = plasma level in the stasis-induced thrombosis study, rectal application; format: in vivo; conditions: rat; for concentration at 0.5 h: 30 min; for concentration at 1 h: 60 min
Method: (§1) The antithrombotic activity of the compounds was determined in the rat on the model of the stasis-induced thrombosis according to Wessler et al. (J. Appl. Physiol. 14, 943-946, 1959). The thrombus was induced by serum 30 min after application of the inhibitor and macroscopically evaluated after 10 further min.
(§2) After rectal application, the compounds of the present invention are absorbed to an extent leading to antithrombotically active plasma levels. This has been shown with the model of the stasis-induced venous thrombosis in the rat according to Wessler et al. This method consisted in macroscopically evaluating thrombi induced by serum in jugular vein segments by means of a scale (0=liquid blood, 1=one or several small thrombi, 2=not fully closed vascular segment, 3=fully closed vascular segment). The antithrombotic effect is clearly dose-dependent.

[4] = plasma concentration in rats after oral administration; format: in vivo; conditions: rat
Method: (§4) A physiological NaCl solution of the substance to be tested was submitted to high pressure liquid chromatography (HPLC) in order to determine its characteristic substance-specific retention time with the chosen test conditions.
(§5) The substance to be tested was diluted in vitro in rat plasma. This solution was also submitted to HPLC to see whether the characteristic peak of the substance once again appeared at the substance-specific retention time.
(§6) Blood samples were taken at time intervals of 15 minutes, from which plasma samples were prepared by centrifugation; those samples were also submitted to HPLC to see whether the characteristic peak of the substance appeared again at the substance-specific retention time.
(§7) After administration, blood samples were taken from the test animals at time intervals from 2 to maximally 360 minutes and the blood level of the compounds to be tested was determined by HPLC.

[5] = target: tPA (Homo sapiens, UniProt P00750); experiment: inhibition of tPA, dissociation constant Ki
[6] = target: thrombin (Bos taurus, UniProt P00735)
[7] = concentration in rat plasma in the anticoagulant study after rectal application; format: in vivo; conditions: for concentration at 0.5 h / concentration at 1 h / concentration at 2 h / concentration at 3 h: plasma; for concentration at 0.5 h: 30 min; for concentration at 1 h: 60 min; for concentration at 2 h: 120 min; for concentration at 3 h: 180 min; for Concentration in plasma: 0 min
[8] = target: glandular kallikrein (Sus scrofa, UniProt P00752); experiment: inhibition of glandular kallikrein, dissociation constant Ki
[9] = test system: stasis-induced venous thrombosis in the rat; experiment: antithrombotic efficacy, stasis-induced venous thrombosis model (Wessler); format: in vivo; conditions: for Thrombus scale 0 (vein segments): 0=liquid blood; for Thrombus scale 1 (vein segments): 1=one or several small thrombi; for Thrombus scale 2 (vein segments): 2=not fully closed vascular segment; for Thrombus scale 3 (vein segments): 3=fully closed vascular segment
Method: as §1, §2
The relative thrombus scale is the quotient of the mean thrombus size of the treated group (e.g. the mean value at 5 mg/kg is 1.2) and the mean thrombus size of the control group (2.9).

[10] = target: T1, trypsin (Bos taurus, UniProt P00760); experiment: inhibition of trypsin, dissociation constant Ki; format: biochemical; set-up: thrombin and the related enzymes trypsin, plasmin, factor Xa, factor XIIa
T1 sequence (P00760 24-246): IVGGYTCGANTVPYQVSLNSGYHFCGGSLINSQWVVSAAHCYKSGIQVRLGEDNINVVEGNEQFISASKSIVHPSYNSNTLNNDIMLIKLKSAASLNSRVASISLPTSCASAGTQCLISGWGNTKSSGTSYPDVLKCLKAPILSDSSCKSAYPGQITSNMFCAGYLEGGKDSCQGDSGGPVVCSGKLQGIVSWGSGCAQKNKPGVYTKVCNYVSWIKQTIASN
Method: (§3) The biological activity of the compounds of the present invention was determined in vitro as well as in vivo.

[11] = test system: coagulation in human plasma; experiment: thrombin time (TT) in human plasma
[12] = test system: coagulation in human plasma; experiment: prothrombin time (PT, Quick value) in human plasma
[13] = target: factor Xa (Bos taurus, UniProt P00743); experiment: inhibition of factor Xa, dissociation constant Ki; format: biochemical; conditions: Table 1
Method: as §3

[14] = target: T2, factor XIIa (Homo sapiens, UniProt P00748); experiment: inhibition of factor XIIa, dissociation constant Ki
T2 sequence (P00748 373-615 limits assumed): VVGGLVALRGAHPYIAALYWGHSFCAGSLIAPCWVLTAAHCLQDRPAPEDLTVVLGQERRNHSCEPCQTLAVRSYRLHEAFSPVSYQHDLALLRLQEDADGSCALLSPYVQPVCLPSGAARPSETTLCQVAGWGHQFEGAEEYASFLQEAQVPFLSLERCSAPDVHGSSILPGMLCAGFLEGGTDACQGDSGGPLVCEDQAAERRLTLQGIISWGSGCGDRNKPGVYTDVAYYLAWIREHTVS

[15] = test system: coagulation in rat plasma; experiment: aPTT in rat plasma after rectal application; format: in vivo
Method: After rectal administration of the compounds to be tested, the anticoagulant effect was determined in the plasma of experimental animals.

[16] = plasma concentration in rats after intravenous administration; format: in vivo; conditions: rat
Method: as §4, §5, §6, §7

Chain of glandular kallikrein (P00752 8-246): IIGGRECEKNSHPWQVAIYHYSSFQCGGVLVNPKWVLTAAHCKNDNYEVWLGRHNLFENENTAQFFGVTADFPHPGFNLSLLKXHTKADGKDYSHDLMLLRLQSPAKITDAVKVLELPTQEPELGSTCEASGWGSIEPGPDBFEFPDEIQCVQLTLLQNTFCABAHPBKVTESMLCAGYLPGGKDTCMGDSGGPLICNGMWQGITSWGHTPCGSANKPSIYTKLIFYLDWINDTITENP
Chain of factor Xa (P00743 234-492 limits assumed): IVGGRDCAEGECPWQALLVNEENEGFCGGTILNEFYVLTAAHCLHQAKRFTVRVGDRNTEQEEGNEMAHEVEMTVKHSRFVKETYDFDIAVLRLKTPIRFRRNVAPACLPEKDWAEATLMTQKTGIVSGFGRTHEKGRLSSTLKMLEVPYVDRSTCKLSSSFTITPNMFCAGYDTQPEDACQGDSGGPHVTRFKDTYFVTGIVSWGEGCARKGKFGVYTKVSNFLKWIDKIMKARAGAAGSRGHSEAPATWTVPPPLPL
Chain of factor Xa (P00743 41-180 partner limits assumed): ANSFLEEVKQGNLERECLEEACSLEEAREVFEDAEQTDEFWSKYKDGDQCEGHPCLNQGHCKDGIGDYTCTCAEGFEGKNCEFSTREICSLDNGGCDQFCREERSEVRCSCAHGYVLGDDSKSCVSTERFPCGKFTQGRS
Chain of tPA (P00750 36-562): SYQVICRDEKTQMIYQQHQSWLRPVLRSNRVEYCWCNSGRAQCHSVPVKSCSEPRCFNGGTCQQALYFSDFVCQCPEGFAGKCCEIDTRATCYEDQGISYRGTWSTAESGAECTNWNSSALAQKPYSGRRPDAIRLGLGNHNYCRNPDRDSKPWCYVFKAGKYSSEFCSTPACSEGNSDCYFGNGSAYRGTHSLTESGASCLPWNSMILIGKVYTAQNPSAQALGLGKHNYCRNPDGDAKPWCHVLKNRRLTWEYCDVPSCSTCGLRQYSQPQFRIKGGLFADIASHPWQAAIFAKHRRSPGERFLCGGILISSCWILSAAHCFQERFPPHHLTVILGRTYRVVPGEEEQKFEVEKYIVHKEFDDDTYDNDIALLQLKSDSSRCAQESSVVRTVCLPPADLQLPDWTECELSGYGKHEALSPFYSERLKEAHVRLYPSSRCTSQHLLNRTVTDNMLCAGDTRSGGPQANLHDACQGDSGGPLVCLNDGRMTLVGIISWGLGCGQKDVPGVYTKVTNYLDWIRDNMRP

CC(=O)N1CCN(C(=O)[C@H](Cc2cccc(C(=N)N)c2)NS(=O)(=O)c2ccc3ccccc3c2)CC1.Cl [Compound 2, Nα-(2-naphthylsulfonyl)-(L)-3-amidinophenylalanine-4-acetylpiperazide hydrochloride]
concentration at 0.5 h ([1]; plasma, rectal 100 mg/kg, 30 min): 32400 ng/mL | concentration at 1 h ([1]; plasma, rectal 100 mg/kg, 60 min): 23100 ng/mL | concentration at 2 h ([1]; plasma, rectal 100 mg/kg, 120 min): 5300 ng/mL | concentration at 3 h ([1]; plasma, rectal 100 mg/kg, 180 min): 2700 ng/mL | concentration at 4 h ([1]; plasma, rectal 100 mg/kg, 240 min): 1260 ng/mL | concentration at 5 h ([1]; plasma, rectal 100 mg/kg, 300 min): 810 ng/mL | concentration at 6 h ([1]; plasma, rectal 100 mg/kg, 360 min): 508 ng/mL | detectable in plasma after rectal administration ([1]; rectal): ≥ 6 h | detection/blood levels in words ([1]; rectal): absorbed by the intestine in particular after rectal administration to rats | concentration at 0.5 h ([2]; 30 min): 21700 ng/mL | concentration at 1 h ([2]; 60 min): 15200 ng/mL | concentration at 2 h ([2]; 120 min): 4280 ng/mL | concentration at 3 h ([2]; 180 min): 2600 ng/mL | concentration at 4 h ([2]; 240 min): 2180 ng/mL | concentration at 5 h ([2]; 300 min): 2200 ng/mL | concentration at 6 h ([2]; 360 min): 2850 ng/mL | concentration at 0.5 h ([3]; rectal 5 mg/kg): 228 ng/mL | concentration at 1 h ([3]; rectal 5 mg/kg): 160 ng/mL | concentration at 0.5 h ([3]; rectal 20 mg/kg): 1620 ng/mL | concentration at 1 h ([3]; rectal 20 mg/kg): 998 ng/mL | concentration at 0.5 h ([3]; rectal 100 mg/kg): 28700 ng/mL | concentration at 1 h ([3]; rectal 100 mg/kg): 16100 ng/mL | concentration at 0.5 h ([4]; plasma, oral 50 mg/kg, 30 min): 1200 ng/mL | concentration at 1 h ([4]; plasma, oral 50 mg/kg, 60 min): 873 ng/mL | concentration at 2 h ([4]; plasma, oral 50 mg/kg, 120 min): 333 ng/mL | concentration at 3 h ([4]; plasma, oral 50 mg/kg, 180 min): 124 ng/mL | concentration at 4 h ([4]; plasma, oral 50 mg/kg, 240 min): 44 ng/mL | concentration at 5 h ([4]; plasma, oral 50 mg/kg, 300 min): 46 ng/mL | resorption in words ([4]; oral): only slightly resorbed | Ki [5]: 440 µM | thrombin inhibition in words [6]: potent thrombin inhibitor | concentration at 0.5 h ([7]; rectal 5 mg/kg): 296 ng/mL | concentration at 1 h ([7]; rectal 5 mg/kg): 160 ng/mL | concentration at 2 h ([7]; rectal 5 mg/kg): 60 ng/mL | concentration at 3 h ([7]; rectal 5 mg/kg): 40 ng/mL | concentration at 0.5 h ([7]; rectal 20 mg/kg): 5440 ng/mL | concentration at 1 h ([7]; rectal 20 mg/kg): 2090 ng/mL | concentration at 2 h ([7]; rectal 20 mg/kg): 812 ng/mL | concentration at 3 h ([7]; rectal 20 mg/kg): 660 ng/mL | Concentration in plasma ([7]; rectal 5 mg/kg): 0 ng/mL | Concentration in plasma ([7]; rectal 20 mg/kg): 0 ng/mL | Ki [8]: > 1000 µM | Thrombus scale 0 (vein segments) ([9]; rectal 5 mg/kg): 0 | Thrombus scale 1 (vein segments) ([9]; rectal 5 mg/kg): 8 | Thrombus scale 2 (vein segments) ([9]; rectal 5 mg/kg): 2 | Thrombus scale 3 (vein segments) ([9]; rectal 5 mg/kg): 0 | mean thrombus size of the treated group ([9]; rectal 5 mg/kg, scale 0-3, control 2.9): 1.2 | Thrombus scale 0 (vein segments) ([9]; rectal 20 mg/kg): 6 | Thrombus scale 1 (vein segments) ([9]; rectal 20 mg/kg): 1 | Thrombus scale 2 (vein segments) ([9]; rectal 20 mg/kg): 0 | Thrombus scale 3 (vein segments) ([9]; rectal 20 mg/kg): 0 | Thrombus scale 0 (vein segments) ([9]; rectal 100 mg/kg): 6 | Thrombus scale 1 (vein segments) ([9]; rectal 100 mg/kg): 0 | Thrombus scale 2 (vein segments) ([9]; rectal 100 mg/kg): 0 | Thrombus scale 3 (vein segments) ([9]; rectal 100 mg/kg): 0 | Ki [10]: 0.044 µM | Concentr. to double the Thrombin time [11]: 0.055 µmol/L | concentration to double the TT [11]: less than 10^-7 mol/1 | Concentr. to double the Prothrombin time [12]: 0.90 µmol/L | concentration to double the PT [12]: ≤ 1 μmol/1 | Ki [13]: 35 µM | Ki [14]: 150 µM | Clotting time, aPTT ([15]; rectal 5 mg/kg, 0 min): 22.5 s | Clotting time, aPTT ([15]; rectal 5 mg/kg, 30 min): 37 s | Clotting time, aPTT ([15]; rectal 5 mg/kg, 60 min): 33 s | Clotting time, aPTT ([15]; rectal 5 mg/kg, 120 min): 30 s | Clotting time, aPTT ([15]; rectal 5 mg/kg, 180 min): 26.4 s | Clotting time, aPTT ([15]; rectal 20 mg/kg, 0 min): 28 s | Clotting time, aPTT ([15]; rectal 20 mg/kg, 30 min): 120 s | Clotting time, aPTT ([15]; rectal 20 mg/kg, 60 min): 87 s | Clotting time, aPTT ([15]; rectal 20 mg/kg, 120 min): 59 s | Clotting time, aPTT ([15]; rectal 20 mg/kg, 180 min): 50 s | concentration at 5 min ([16]; plasma, iv, i.v. 1 mg/kg, 5 min): 780 ng/mL | concentration at 0.25 h ([16]; plasma, iv, i.v. 1 mg/kg, 15 min): 224 ng/mL | concentration at 0.5 h ([16]; plasma, iv, i.v. 1 mg/kg, 30 min): 95 ng/mL | concentration at 1 h ([16]; plasma, iv, i.v. 1 mg/kg, 60 min): 38 ng/mL | concentration at 2 h ([16]; plasma, iv, i.v. 1 mg/kg, 120 min): 12 ng/mL | concentration at 3 h ([16]; plasma, iv, i.v. 1 mg/kg, 180 min): 10 ng/mL | elimination in words ([16]; i.v.): eliminated at comparable rate
